Consider 9 compounds from patent publication US20100196321A1, “COMPOUNDS” (GLAXOSMITHKLINE LLC, priority 2009, published 2010).

The structures appear in SMILES notation.

Assay [1] deals with sub-genomic HCV NS3-NS5B replicon of genotype 1b (ET subline) in Huh-7 cells. Put plainly: Replicon Luciferase Cell Based Assay, genotype 1b. Set-up: species or system HCV genotype 1b. The settings on record: Hepatitis C virus, Huh-7, 48 h, read-out: Genotype 1b (IC50 μM). The method, then:
(§1) A 10 mM stock solution in DMSO of each test compound was further diluted in DMSO in the first row of a 384-well, V-bottom microplate, to give 100 times the top concentration of the required dilution series. Dilutions of compound were prepared in 1:3 serial dilutions from the first row onwards robotically. A robot was also used to transfer 0.5 μL volumes from each dilution well into wells of white 384-well assay plates (Nunc #164610). Control wells received 0.5 μL of DMSO alone. Plates were made in duplicate for measuring HCV replication and cytotoxicity in the replicon cell lines.
(§2) Suspensions were prepared from cultures of Huh-7 cells stably transfected with sub-genomic HCV NS3—NS5B replicons of either genotype 1b (the ET subline described by Pietschmann, T., Lohmann, V., Kaul, A., Krieger, N., Rinck, G., Rutter, G., Strand, D. & Bartenschlager, R., Journal of Virology, 2002, 76, 4008-4021) or genotype 1a linked to a firefly luciferase reporter gene. Monolayers nearing confluency were stripped from growth flasks with versene-trypsin solution and the cells re-suspended in assay medium comprising DMEM (Invitrogen #11965-092) supplemented with 5% v/v foetal calf serum, 1% v/v non-essential amino acids solution, 100 units/ml penicillin, 100 μg/ml streptomycin and 2 mM GlutaMAX-1. 50 μL of suspension containing 5,000 cells of either genotype 1b or genotype 1a luciferase replicon were added to all wells, except medium controls, of the assay plate with a Multidrop Combi (Thermo Scientific Corporation) and the plate incubated for 48 hours at 37° C. in a 5% CO2 atmosphere. A solution of Steady-Glo cytolytic buffer/luciferase substrate (Promega #E2550) was prepared according to the manufacturer's instructions, and 20 μL were added to each well with a Multidrop Combi. To measure cytotoxicity, a solution of CellTiter-Glo Luminescent Cell Viability Assay reagent (Promega #G7573) was prepared according to the manufacturer's instructions, and 20 ul were added to each well with a Multidrop Combi. The plates were then read for luminescence on an Envision Multilabel Reader (Perkin Elmer)
(§3) Potency: The luminescence values from all compound-free wells containing cells were averaged to obtain a positive control value. The mean luminescence value from the compound-free wells that had received no cells was used to provide the negative (background) control value. After the subtraction of the mean background from all values, the readings from wells at each compound concentration were expressed as a percentage of the positive control signal. The quantifiable and specific reduction of luciferase signal in the presence of a drug is a direct measure of replicon inhibition. The BioAssay application and XC50 module were used to plot the curve of percentage inhibition against compound concentration and derive the 50% inhibitory concentration (IC50) for the compound.
On the technique in general: In antiviral work, replicon cells carry a viral genome segment that copies itself.

Assay [2] has as its system sub-genomic HCV NS3-NS5B replicon of genotype 1a in Huh-7 cells. Put plainly: Replicon Luciferase Cell Based Assay, genotype 1a. Particulars: Hepatitis C virus, Huh-7, 48 hours. Set-up: species or system HCV genotype 1a. How it is done:
as §1, §2, §3

One may read the IC50 as the point on the concentration scale where inhibition reaches its midpoint.

Consider `CCN(CC)C(=O)N[C@H]1CCCCC/C=C\[C@@H]2C[C@@]2(C(=O)NS(=O)(=O)C2CC2)NC(=O)[C@@H]2C[C@@H](Oc3cc(-c4nc(C5CC5)cs4)nc4c(Cl)c(OC)ccc34)CN2C1=O` [Example 4, (2R,6S,13aS,14aR,16aS,Z)-2-(8-chloro-2-(4-cyclopropylthiazol-2-yl)-7-methoxyquinolin-4-yloxy)-N-(cyclopropylsulfonyl)-6-(3,3-diethylureido)-5,16-dioxo-1,2,3,5,6,7,8,9,10,11,13a,14,14a,15,16,16a-hexadecahydrocyclopropa[e]pyrrolo[1,2-a][1,4]diazacyclopentadecine-14a-carboxamide], for which the IC50 in assay [1] and in assay [2] was less than 0.01 µM in each case.
Consider `COc1ccc2c(O[C@@H]3C[C@H]4C(=O)N[C@]5(C(=O)NS(=O)(=O)C6CC6)C[C@H]5/C=C\CCCCC[C@H](NC(=O)N5CC6CCCC6C5)C(=O)N4C3)cc(-c3nc(C(C)C)cs3)nc2c1C` (stereo partly drawn) [Example 24, (2R,6S,13aS,14aR,16aS)-N-(cyclopropylsulfonyl)-6-[(hexahydrocyclopenta[c]pyrrol-2(1H)-ylcarbonyl)amino]-2-{[8-methyl-2-[4-(1-methylethyl)-1,3-thiazol-2-yl]-7-(methyloxy)-4-quinolinyl]oxy}-5,16-dioxo-1,2,3,6,7,8,9,10,11,13a,14,15,16,16a-tetradecahydrocyclopropa[e]pyrrolo[1,2-a][1,4]diazacyclopentadecine-14a(5H)-carboxamide], for which the 50% inhibitory concentration (IC50) in assay [1] and in assay [2] was less than 0.01 µM each time.
As to `COc1ccc2c(O[C@@H]3C[C@H]4C(=O)N[C@]5(C(=O)NS(=O)(=O)C6CC6)C[C@H]5/C=C\CCCCC[C@H](NC(=O)N5CCC(C)(C)C5)C(=O)N4C3)cc(-c3nc(C4CC4)cs3)nc2c1C` [Example 34, (2R,6S,13a-5,1-aR,16aS,Z)-N-(cyclopropylsulfonyl)-2-(2-(4-cyclopropylthiazol-2-yl)-7-methoxy-8-methylquinolin-4-yloxy)-6-(3,3-dimethylpyrrolidine-1-carboxamido)-5,16-dioxo-1,2,3,5,6,7,8,9,10,11,13a,14,14a,15,16,16a-hexadecahydrocyclopropa[e]pyrrolo[1,2-a][1,4]diazacyclopentadecine-14a-carboxamide], the IC50 in assay [1] and in assay [2] was less than 0.01 µM throughout.
Turning to `COc1ccc2c(O[C@@H]3C[C@H]4C(=O)N[C@]5(C(=O)NS(=O)(=O)C6CC6)C[C@H]5/C=C\CCCCC[C@H](NC(=O)N5CCC(C)(C)C5)C(=O)N4C3)cc(-c3nc(C(C)C)cs3)nc2c1C` [Example 36, (2R,6S,13aS,14aR,16aS,Z)-N-(cyclopropylsulfonyl)-6-(3,3-dimethylpyrrolidine-1-carboxamido)-2-(2-(4-isopropylthiazol-2-yl)-7-methoxy-8-methylquinolin-4-yloxy)-5,16-dioxo-1,2,3,5,6,7,8,9,10,11,13a,14,14a,15,16,16a-hexadecahydrocyclopropa[e]pyrrolo[1,2-a][1,4]diazacyclopentadecine-14a-carboxamide], the concentration for half-maximal inhibition (IC50) in assay [1] and in assay [2] was less than 0.01 µM throughout.
As to `COc1ccc2c(O[C@@H]3C[C@H]4C(=O)N[C@]5(C(=O)NS(=O)(=O)C6CC6)C[C@H]5/C=C\CCCCC[C@H](NC(=O)N5CCCCC5)C(=O)N4C3)cc(-c3nc(C4CC4)cs3)nc2c1C` [Example 31, (2R,6S,13aS,14aR,16aS,Z)-N-(cyclopropylsulfonyl)-2-(2-(4-cyclopropylthiazol-2-yl)-7-methoxy-8-methylquinolin-4-yloxy)-5,16-dioxo-6-(piperidine-1-carboxamido)-1,2,3,5,6,7,8,9,10,11,13a,14,14a,15,16,16a-hexadecahydrocyclopropa[e]pyrrolo[1,2-a][1,4]diazacyclopentadecine-14a-carboxamide], the IC50 in assay [1] and in assay [2] was less than 0.01 µM each time.
With `COc1ccc2c(O[C@@H]3C[C@H]4C(=O)N[C@]5(C(=O)NS(=O)(=O)C6CC6)C[C@H]5/C=C\CCCCC[C@H](NC(=O)N5CCS(=O)(=O)CC5)C(=O)N4C3)cc(-c3nc(C(C)C)cs3)nc2c1C` [Example 12, (2R,6S,13aS,14aR,16aS)-N-(cyclopropylsulfonyl)-6-{[(1,1-dioxido-4-thiomorpholinyl)carbonyl]amino}-2-{[8-methyl-2-[4-(1-methylethyl)-1,3-thiazol-2-yl]-7-(methyloxy)-4-quinolinyl]oxy}-5,16-dioxo-1,2,3,6,7,8,9,10,11,13a,14,15,16,16a-tetradecahydrocyclopropa[e]pyrrolo[1,2-a][1,4]diazacyclopentadecine-14a(5H)-carboxamide], the IC50 in assay [1] and in assay [2] was less than 0.01 µM each time.
As for `COc1ccc2c(O[C@@H]3C[C@H]4C(=O)N[C@]5(C(=O)NS(=O)(=O)C6CC6)C[C@H]5/C=C\CCCCC[C@H](NC(=O)N5CCCC5)C(=O)N4C3)cc(-c3nc(C(C)C)cs3)nc2c1C` [Example 15, (2R,6S,13aS,14aR,16aS)-N-(cyclopropylsulfonyl)-2-{[8-methyl-2-[4-(1-methylethyl)-1,3-thiazol-2-yl]-7-(methyloxy)-4-quinolinyl]oxy}-5,16-dioxo-6-[(1-pyrrolidinylcarbonyl)amino]-1,2,3,6,7,8,9,10,11,13a,14,15,16,16a-tetradecahydrocyclopropa[e]pyrrolo[1,2-a][1,4]diazacyclopentadecine-14a(5H)-carboxamide], the IC50 in assay [1] and in assay [2] was less than 0.01 µM in each case.
As for `COc1ccc2c(O[C@@H]3C[C@H]4C(=O)N[C@]5(C(=O)NS(=O)(=O)C6CC6)C[C@H]5/C=C\CCCCC[C@H](NC(N)=O)C(=O)N4C3)cc(-c3nc(C(C)C)cs3)nc2c1C` [Example 3, (2R,6S,13aS,14aR,16aS)-6-[(aminocarbonyl)amino]-N-(cyclopropylsulfonyl)-2-{[8-methyl-2-[4-(1-methylethyl)-1,3-thiazol-2-yl]-7-(methyloxy)-4-quinolinyl]oxy}-5,16-dioxo-1,2,3,6,7,8,9,10,11,13a,14,15,16,16a-tetradecahydrocyclopropa[e]pyrrolo[1,2-a][1,4]diazacyclopentadecine-14a(5H)-carboxamide], the half-maximal inhibitory concentration (IC50) in assay [1] and in assay [2] was less than 0.01 µM each time.
As to `COCCN(C)C(=O)N[C@H]1CCCCC/C=C\[C@@H]2C[C@@]2(C(=O)NS(=O)(=O)C2CC2)NC(=O)[C@@H]2C[C@@H](Oc3cc(-c4nc(C5CC5)cs4)nc4c(Cl)c(OC)ccc34)CN2C1=O` [Example 28, (2R,6S,13aS,14aR,16aS)-2-{[8-chloro-2-(4-cyclopropyl-1,3-thiazol-2-yl)-7-(methyloxy)-4-quinolinyl]oxy}-N-(cyclopropylsulfonyl)-6-[({methyl[2-(methyloxy)ethyl]amino}carbonyl)amino]-5,16-dioxo-1,2,3,6,7,8,9,10,11,13a,14,15,16,16a-tetradecahydrocyclopropa[e]pyrrolo[1,2-a][1,4]diazacyclopentadecine-14a(5H)-carboxamide], the half-maximal inhibitory concentration (IC50) in assay [1] and in assay [2] was less than 0.01 µM in each case.
